Laboratory results as given in patent US5399699A, “Indole iminooxy derivatives which inhibit leukotriene biosynthesis” (Abbott Laboratories, priority 1994, dated 1995).
pIC50: −log10 of the molar value.

Experiments:
[1] = system: LTB4 biosynthesis in human polymorphonuclear leukocytes (PMNL); assay: Inhibition of calcium ionophore (A23187)-induced LTB4 biosynthesis in human PMNL; assay type: cell-based; conditions: 15 min preincubation at 37° C., A23187 8.3 μM, 10 min, LTB4 by HPLC
Experimental: Inhibition of leukotriene biosynthesis was evaluated in assays, involving calcium ionophore-induced LTB4 biosynthesis expressed by human polymorphonuclear leukocytes (PMNL) or human whole blood. Human PMNL were isolated from heparinized (20 USP units/mL) venous blood using Ficoll-Hypaque Mono-Poly Resolving Medium. Human PMNL suspensions (5×10^6 cells/250 μL) were preincubated with test compounds or vehicle for 15 min at 37° C. followed by calcium ionophore A23187 challenge (final concentration of 8.3 μM) and the reaction terminated after 10 min by adding two volumes of methanol containing prostaglandin B2 as an internal recovery standard. The methanol extracts were analyzed for LTB4 content by HPLC.

[2] = system: leukotriene biosynthesis; assay: Inhibition of leukotriene biosynthesis in vivo, rat peritoneal anaphylaxis model, oral administration; conditions: 1 h, by gavage one hour prior to antigen challenge
Experimental: Inhibition of the biosynthesis of leukotrienes in vivo after oral administration of compound was determined using a rat peritoneal anaphylaxis model in a similar manner as that described by Young and coworkers (Young, P. R.; Dyer, R. D.; Carter, G. W. Fed. Proc., Fed. Am. Sec. Exp. Biol. 1985, 44, 1185). In this model rats were injected intraperitoneally (ip) with rabbit antibody to bovine serum albumin (BSA) and three hours later injected ip with BSA to induce an antigen-antibody response. Rats were sacrificed 15 minutes after this challenge and the peritoneal fluids were collected and analyzed for leukotriene levels. Test compounds were administered by gavage one hour prior to the antigen challenge. Percent inhibition values were determined by comparing the treatment group to the mean of the control group.

Row | pIC50 [1] | Compound | ED50 [2] [mg/kg]
1 | 8.00 | CC(C)(CON=CC(=O)O)Cc1c(SC(C)(C)C)c2cc(OCc3ccc4ccccc4n3)ccc2n1Cc1ccc(Cl)cc1 [Example 1] | 0.9
2 | 8.00 | CC(=NOCC(C)(C)Cc1c(SC(C)(C)C)c2cc(OCc3ccc4ccccc4n3)ccc2n1Cc1ccc(Cl)cc1)C(=O)O [Example 2, 1-(4-chlorobenzyl)-3-(t-butylthio)-5-(2-quinolinemethoxy)indol-2-yl(2,2-dimethyl)prop-3-yl-iminooxy-2-propionic acid] | –
3 | 8.10 | CC(=NOCC(C)(C)Cc1c(SC(C)(C)C)c2cc(OCc3cscn3)ccc2n1Cc1ccc(Cl)cc1)C(=O)O [Example 5, 1-(4-chlorobenzyl)-3-(t-butylthio)-5-(4-thiazolylmethoxy)indol-2-yl-(2,2-dimethyl)prop-3-yliminooxy-2-propionic acid] | –
4 | 8.30 | CC(C)(CON=CC(=O)O)Cc1c(SC(C)(C)C)c2cc(OCc3ccc4ccccc4n3)ccc2n1Cc1ccc(F)cc1 [Example 6, 1-(4-fluorobenzyl)-3-(t-butylthio)-5-(2-quinolinylmethoxy)indol-2-yl-(2,2-dimethyl)prop-3-yliminooxyacetic acid] | –
